These results are taken from PMC11869560, “Anticancer and cancer preventive activities of shogaol and curcumin from Zingiberaceae family plants in KG-1a leukemic stem cells” (BMC Complementary Medicine and Therapies, 2025).

Converted amounts (≈) assume the structure as drawn.

In one experiment the test system is RAW264.7 cells. Nature of the experiment: Cytotoxicity (IC20, cell viability) in RAW264.7 cells. As to conditions: Mus musculus, RAW264.7; incubation for 48 h; read-out: IC20 RAW264.7 (inhibitory concentration at 20% growth). The experiment is classed as cell-based.
For experiment [1], the system named is KG-1a cells. As to the kind of experiment: Cell cycle and apoptosis (sub-G1) assay by flow cytometry in KG-1a cells. The experiment is classed as cell-based, human. As to conditions: 48 h; for change of cell cycle phase population compared to VC: IC20 concentrations; for G2/M phase population: IC50 concentrations. The protocol: After treating KG-1a cells with active compounds at various concentrations for 48 h, the cells were pulsed with 10 µM BrdU (Sigma-Aldrich, MA, USA) for 20 min at 37 °C in an incubator with 5% CO2. Subsequently, the cells were harvested, washed with ice-cold PBS, pH 7.4 three times, and then fixed with 70% ethanol in PBS, pH 7.4 at −30 °C. Following fixation, the cells were washed and resuspended in 2 N HCl/0.5% Triton X-100 for 30 min at room temperature (RT). Then, 0.1 M sodium tetraborate decahydrate was added for 2 min at RT to neutralize the acid. Subsequently, the cells were stained with FITC-anti-BrdU antibody for 30 min at RT. After washing, the cells were resuspended in propidium iodide (PI) (Dojindo, Kumamoto, Japan) in PBS, pH 7.4 at a ratio of 1:1,000. The cell cycle phases were detected using a flow cytometer (CytoFLEX S, Beckman Coulter, CA, USA) and analyzed with the CytExpert program (Beckman Coulter, CA, USA).
The flow cytometry data were analyzed to assess both apoptosis and cell cycle distribution. Apoptosis was evaluated by determining the percentage of cells in the sub-G1 phase using the Nicoletti assay. For cell cycle analysis, populations in the G1, S, and G2/M phases were calculated after excluding the sub-G1 population to avoid interference from apoptotic cells, allowing for a clearer assessment of cell cycle arrest in different phases. Data were presented in separate graphs for the sub-G1 population and cell cycle phase distributions.

For experiment [2], the system named is KG-1a cells. Nature of the experiment: Cell death analysis by PI staining and flow cytometry in KG-1a cells. The experiment is classed as cell-based, human. As to conditions: nocodazole 5–120 ng/mL, shogaol 6–9 µg/mL, curcumin various concentrations; time course. The protocol: Additionally, PI staining was used to investigate the cytotoxicity of the active compounds. KG-1a cells after exposure to the active compounds with various concentration were harvested at different incubation times and washed with ice-cold PBS, pH 7.4 for 2 times. Then, the cells were resuspended with PI in PBS, pH 7.4 at a ratio of 1:10,000. The percentage of dead cells was detected by flow cytometry (CytoFLEX S, Beckman Coulter, CA, USA) and analyzed by CytExpert program (Beckman Coulter, CA, USA).
For orientation: In flow cytometry, cells or beads pass a laser one at a time.

For experiment [3], the system named is cleaved caspase-3 and PARP in KG-1a cells. Nature of the experiment: Cleaved caspase-3 and cleaved PARP in KG-1a cells by Western blotting. The experiment is classed as cell-based, human. Conditions: IC50 concentrations (curcumin 10 µg/mL, shogaol 3 µg/mL, nocodazole 10 ng/mL), 0–12 h. The protocol:
KG-1a cells (1.5 × 10^5 cells/mL) were treated with compounds or extracts at different incubation times. Then, the cells were harvested and the whole proteins were extracted using a RIPA buffer (25 mM Tris-base, pH 7.6, 0.1% SDS, 1% Triton X-100, 150 mM NaCl, and 1 mM EDTA). The protein concentration was measured using the Folin-Lowry or Bradford assay. The whole protein lysates (30 µg/lane) were then separated through 7.5% SDS-PAGE under reducing conditions and then transferred to PVDF membranes. The membranes were blocked in 5% skim milk in PBS, pH 7.4 at RT for 2 h, then, target proteins were probed with specific primary antibodies (anti-WT1, anti-CD34, anti-GAPDH, anti-cleaved caspase-3, anti-cleaved PARP, anti-phospho-Akt, anti-phospho-c-Jun, anti-phospho-SAPK/JNK, and anti-YAP/TAZ) indicated in Table S10 which diluted at a ratio of 1:1,000 in PBS, pH 7.4 at RT for 2 h. After incubation, the membranes were rinsed 6 times with 0.1% Tween-20 (Sigma-Aldrich, MA, USA) in PBS, pH 7.4 (PBS-T), each time for 5 min. The reaction was followed by HRP-conjugated secondary antibody at 1:20,000 dilution in PBS, pH 7.4 at RT for 2 h, then, the membranes were rinsed 6 times for 5 min each with PBS-T. The proteins were shown using Immobilon Forte Western HRP substrate (Millipore, MA, USA). Finally, the protein band signal was quantified by using a scan densitometer (Bio-Rad Laboratories, CA, USA).

Experiment [4] deals with NO production in LPS-activated RAW264.7 cells. Nature of the experiment: NO production in LPS-activated RAW264.7 cells. In kind it is cell-based, mouse. As to conditions: IC20 concentration, 2 h pre-treatment then 1 µg/mL LPS 24 h. As for the experimental part: For the measurement of tumor necrosis factor-alpha (TNF-α) and NO, RAW264.7 cells were pre-treated with plant extracts and active compounds at a non-cytotoxic dose (IC20) (Table S9) or 1 µg/mL of dexamethasone (positive control) in a 24-well plate for 2 h. Subsequently, 1 µg/mL of lipopolysaccharide (LPS) (Cat No. 00497693, Invitrogen™, MA, USA) was added to each well, and the cells were incubated for an additional 24 h to allow sufficient time for the compounds to exert measurable anti-inflammatory effects while maintaining cell viability. Afterward, supernatants were collected, and the levels of TNF-α and NO were measured using the Mouse TNF alpha Uncoated ELISA Kit (Invitrogen™, ThermoFisher Scientific, MA, USA) and the Total Nitric Oxide Assay Kit (Invitrogen™, ThermoFisher Scientific, MA, USA), respectively, according to the manufacturer’s instructions.
The percentage of NO or cytokine inhibitions were calculated using the following equation: […]
where A is the level of cytokine or NO without treatment, and B is the level of cytokine or NO with treatment.

Where [5] appears, read: IC20 concentration (nocodazole 6 ng/mL, curcumin 3 µg/mL, shogaol 0.12 µg/mL).
Setting [6] is: higher concentrations than IC20.

In the case of `COc1cc(/C=C/C(=O)CC(=O)/C=C/c2ccc(O)c(OC)c2)ccc1O` [Curcumin, curcumin], the IC20 in the experiment on RAW264.7 cells came to 2.08 ± 0.15 µg/mL (≈ 5.65 µM). Moreover, the “effect on sub-G1 population compared to VC” value is on record as “did not significantly increase the sub-G1 population” with KG-1a cells [1] (setting [5]) and “significant increases in the sub-G1 population” in the experiment with KG-1a cells [1] (setting [6]). Moreover, the “change of cell cycle phase population compared to VC” value in the experiment on KG-1a cells [1] is “neither curcumin nor shogaol induced significant changes in the cell cycle phase population”. In the experiment with KG-1a cells [1] (sub-G1 excluded), the G2/M phase population was 43.66 ± 6.75%. Further, the “induction of cell death (PI staining)” value in the experiment on KG-1a cells [2] is given as “gradually induced cell death after 12 h of incubation”. Also, the “time to activation of cleaved caspase-3 and PARP” value in experiment [3] turned out to be 6 h.
`CCCCC/C=C/C(=O)CCc1ccc(O)c(OC)c1` [Shogaol, shogaol]: in the experiment on RAW264.7 cells, the IC20 was found to be 2.71 ± 0.62 µg/mL (≈ 9.81 µM). Moreover, in experiment [4], the “inhibition of NO release” value is 46.46 ± 3.71%. In the experiment on KG-1a cells [1] (1.5 µg/mL, sub-G1 excluded), the “decrease of S phase population” value turned out to be 40.56 ± 3.82%. Also, the “effect on sub-G1 population compared to VC” value is on record as “did not significantly increase the sub-G1 population” with KG-1a cells [1] (setting [5]) and “significant increases in the sub-G1 population” with KG-1a cells [1] (setting [6]). In addition, the “change of cell cycle phase population compared to VC” value with KG-1a cells [1] was “neither curcumin nor shogaol induced significant changes in the cell cycle phase population”. The same compound gave a G2/M phase population in the experiment on KG-1a cells [1] (sub-G1 excluded) of 31.38 ± 1.60%. Also, the “induction of cell death (PI staining)” value in the experiment on KG-1a cells [2] is on record as “notably induced cell death at 6 h”. Moreover, the “time to activation of cleaved caspase-3 and PARP” value in experiment [3] was 3 h.
